Reference: the supplement of paper PMC4858399
Counter-ions that a name gives are not always drawn.

What was measured:
Settings in all cases: exposure time 48 h
[1] = test system: Caenorhabditis elegans N2; experiment: AC50 for larval growth inhibition (Hill fit); higher = less potent
Summary of the method: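 After 48 h at 20°C in K-medium with killed OP50, 1% DMSO and 0.5–200 µM chemical, synchronised C. elegans N2 L1 larvae (50 per well, 96-well plates) were sized individually as extinction on a COPAS Biosort. These values were log-transformed and averaged per well, and wells with fewer than 10 worms were excluded. The AC50 was derived from a constrained Hill fit by weighted genetic-algorithm regression, and out-of-range values are censored.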

[2] = test system: Caenorhabditis elegans N2; experiment: mean nematode size ln(EXT) after 48 h, plate-adjusted (DMSO control set to 6) (ln(EXT), control-adjusted); higher = larger nematodes / less growth inhibition
Summary of the method: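 Synchronised C. elegans N2 L1 larvae (50 per well, 4–6 wells per treatment) were grown for 48 h at 20°C in K-medium with killed OP50, 1% DMSO and 0.5–200 µM chemical. The Biosort measured each worm's extinction, and debris was removed by a growth model. Values were natural-logged and averaged per well. Mean size was then plate-adjusted by subtracting the vehicle control mean and adding 6.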

[3] = test system: Caenorhabditis elegans N2; experiment: lowest effective concentration for larval growth inhibition (size below effect threshold); higher = less potent
Summary of the method: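 C. elegans N2 L1 larvae (50 per 96-well) were grown 48 h at 20°C in K-medium with killed bacteria, 1% DMSO and 0.5, 1, 5, 10, 50, 100 or 200 µM chemical. The Biosort measured per-worm extinction as size, and these were log-transformed into well means. The lowest effective concentration is the first dose where the plate-adjusted mean size drops under the 5.665 threshold and stays under it at higher doses.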

Row | Structure (SMILES) | AC50 for larval growth inhibition [1] | mean nematode size ln(EXT) (ln) ([2]; 0.5 µM) | mean nematode size ln(EXT) (ln) ([2]; 1 µM) | mean nematode size ln(EXT) (ln) ([2]; 5 µM) | mean nematode size ln(EXT) (ln) ([2]; 10 µM) | mean nematode size ln(EXT) (ln) ([2]; 50 µM) | mean nematode size ln(EXT) (ln) ([2]; 100 µM) | mean nematode size ln(EXT) (ln) ([2]; 200 µM) | lowest effective concentration [3]
1 | CCCCCCCCCCCC(=O)OC [Methyl laurate] | > 200 µM | 5.77 | 5.99 | 5.92 | 5.94 | 5.74 | 5.82 | 4.96 | 200 µM
2 | CC(C)(C)CC(C)(C)c1ccc(O)cc1 [4-(1,1,3,3-Tetramethylbutyl)phenol] | 101 µM | 6.09 | 6.01 | 6.04 | 5.97 | 5.53 | 4.62 | 3.54 | 50 µM
3 | CCCCCCCCOC(=O)CCCCCCCCC(=O)OCCCCCCCC [Sebacic acid di-n-octyl ester] | 39.2 µM | 5.75 | 5.77 | 5.82 | 6.22 | 5.69 | 5.67 | 5.58 | 200 µM
4 | CCN(CC)c1nc(C)cc(OP(=S)(OC)OC)n1 [Pirimiphos-methyl] | 124 µM | 5.93 | 5.93 | 5.83 | 5.92 | 6.01 | 6.01 | 4.12 | 200 µM
5 | Sc1nc2ccccc2s1 [2-Mercaptobenzothiazole] | > 200 µM | 5.83 | 5.81 | 5.8 | 5.76 | 5.69 | 5.59 | 5.57 | 100 µM
6 | CCC(C)N(C)C(=O)c1cc2ccccc2c(-c2ccccc2Cl)n1 (centres undefined) | 95.2 µM | 5.92 | 5.93 | 5.99 | 5.97 | 6.11 | 5.55 | 5.43 | 100 µM
7 | O=C(NC(=O)c1c(F)cccc1F)Nc1ccc(OC(F)(F)C(F)OC(F)(F)F)c(Cl)c1 (centres undefined) [Novaluron] | > 200 µM | 5.83 | 5.74 | 5.85 | 5.88 | 5.61 | 5.12 | 4.56 | 50 µM
8 | CCCCCCCCCCCCCCCS(=O)(=O)Oc1ccccc1 [C10-21 sulfonic acids phenyl esters] | 169 µM | 6.06 | 6.02 | 5.89 | 6 | 5.93 | 5.96 | 3.65 | 200 µM
9 | C/C=C/c1ccc(OC)cc1 [(E)-Anethole] | > 200 µM | 6.06 | 5.98 | 6.01 | 6.06 | 5.97 | 5.96 | 5.49 | 200 µM
10 | CCCCC(O)(Cn1cncn1)c1ccc(Cl)cc1Cl (centres undefined) [Hexaconazole] | 84.2 µM | 5.86 | 5.78 | 5.71 | 5.99 | 5.81 | 4.65 | 4.09 | 100 µM
11 | CN(C)C(=O)Nc1ccc(Cl)cc1 [Monuron] | > 200 µM | 5.99 | 6 | 5.94 | 5.98 | 5.86 | 5.79 | 5.34 | 200 µM
12 | CNC(=O)ON=C(C)SC [Methomyl] | 91.6 µM | 5.94 | 5.95 | 6.08 | 5.93 | 5.19 | 4.65 | 3.39 | 50 µM
13 | COC(=O)C(C)Oc1ccc(Oc2ccc(Cl)cc2Cl)cc1 (centres undefined) [Diclofop-methyl] | > 200 µM | 6.06 | 6.74 | 6 | 5.92 | 5.56 | 5.39 | 4.62 | 50 µM
14 | O=C1CN(/N=C/c2ccc([N+](=O)[O-])o2)C(=O)N1 [Nitrofurantoin] | > 200 µM | 5.9 | 5.88 | 5.88 | 5.88 | 5.81 | 5.84 | 5.46 | 200 µM
15 | CCCCCCCCCCCCc1ccccc1S(=O)(=O)O [Dodecylbenzenesulfonic acid, Na salt] | 50.2 µM | 5.73 | 5.72 | 5.8 | 5.99 | 4.92 | 3.85 | 3.24 | 50 µM
16 | CN(C)CCOC(c1ccccc1)c1ccccc1 [Diphenhydramine hydrochloride] | > 200 µM | 5.87 | 5.9 | 5.91 | 5.91 | 5.78 | 5.78 | 5.39 | 200 µM
17 | CCc1nc(N)nc(N)c1-c1ccc(Cl)cc1 [Pyrimethamine] | > 200 µM | 5.86 | 5.91 | 6.02 | 5.67 | 5.66 | 5.43 | 4.91 | 50 µM
18 | C[C@]12CCC(=O)C=C1CC[C@@H]1[C@@H]2CC[C@]2(C)C(=O)CC[C@@H]12 [Androstenedione] | > 200 µM | 5.85 | 5.91 | 5.86 | 5.99 | 5.89 | 5.84 | 5.66 | 200 µM
19 | CCCCCCCCCCCCOS(=O)(=O)[O-].[Na+] [Sodium dodecyl sulfate] | 24.5 µM | 5.87 | 5.81 | 5.75 | 5.47 | 4.99 | 4.66 | 4.69 | 10 µM
20 | CN1CCC[C@H]1c1cccnc1 [Nicotine] | > 200 µM | 5.88 | 5.83 | 5.83 | 5.87 | 5.87 | 5.38 | 5.56 | 100 µM
21 | CC#Cc1cc(C)nc(Nc2ccccc2)n1 [Mepanipyrim] | > 200 µM | 5.81 | 5.81 | 5.8 | 5.84 | 5.7 | 5.75 | 5.21 | 200 µM
